Data from ChEMBL document CHEMBL2412979, “2-(2-Methylfuran-3-carboxamido)-3-phenylpropanoic acid, a potential CYP26A1 inhibitor to enhance all-trans retinoic acid-induced leukemia cell differentiation based on virtual screening and biological evaluation” (Bioorg Med Chem, 2013).

Assays:
NB-4 [1] = assay: Potentiation of ATRA-induced human NB4 cell differentiation at 1 uM after 96 hrs by nitroblue tetrazolium assay (reference value: 29.93 +/- 0.73%); type: functional
NB-4 [2] = assay: Potentiation of ATRA-induced human NB4 cell growth inhibition at 1 uM after 96 hrs by hemocytometry (reference value: 32.42 +/- 3.98%); type: functional; conditions: NB-4, 96 h, read-out: GI
Cytochrome P450 26A1 = target: T1, Cytochrome P450 26A1 (Homo sapiens, UniProt O43174); assay: Inhibition of CYP26A1 in human NB4 cells assessed as ATRA level in medium at 5 uM after 12 hrs by LC-MS/MS analysis (reference value: 27.05 +/- 1.34 ng/ml); type: cell-based; conditions: nb-4, 12 h
T1 sequence (O43174 whole entry): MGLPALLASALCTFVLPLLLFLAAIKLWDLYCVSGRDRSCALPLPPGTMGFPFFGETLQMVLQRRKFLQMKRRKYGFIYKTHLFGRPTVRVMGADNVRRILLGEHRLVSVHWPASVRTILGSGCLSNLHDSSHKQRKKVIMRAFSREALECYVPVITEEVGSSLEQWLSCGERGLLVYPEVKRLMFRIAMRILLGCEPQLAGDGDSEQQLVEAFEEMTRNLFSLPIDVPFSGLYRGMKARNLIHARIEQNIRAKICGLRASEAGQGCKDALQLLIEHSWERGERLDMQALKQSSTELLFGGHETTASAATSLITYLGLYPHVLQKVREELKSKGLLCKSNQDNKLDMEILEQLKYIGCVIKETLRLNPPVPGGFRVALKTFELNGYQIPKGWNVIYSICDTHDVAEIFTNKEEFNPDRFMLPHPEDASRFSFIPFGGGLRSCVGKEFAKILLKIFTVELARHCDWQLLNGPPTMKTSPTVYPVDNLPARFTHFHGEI

NB-4 [3] = assay: Potentiation of ATRA-induced human NB4 cell differentiation at 0.5 uM after 96 hrs by nitroblue tetrazolium assay (reference value: 29.93 +/- 0.73%); type: functional
NB-4 [4] = assay: Cytotoxicity against human NB4 cells assessed as growth inhibition at 1 uM after 96 hrs by hemocytometry relative to control; type: functional; conditions: NB-4, 96 h, read-out: GI
NB-4 [5] = assay: Potentiation of ATRA-induced human NB4 cell growth inhibition at 0.5 uM after 96 hrs by hemocytometry (reference value: 32.42 +/- 3.98%); type: functional; conditions: NB-4, 96 h, read-out: GI
NB-4 [6] = assay: Cytotoxicity against human NB4 cells assessed as growth inhibition at 0.5 uM after 96 hrs by hemocytometry relative to control; type: functional; conditions: NB-4, 96 h, read-out: GI
NB-4 [7] = assay: Potentiation of ATRA-induced human NB4 cell differentiation at 10 uM after 96 hrs by nitroblue tetrazolium assay (reference value: 29.44 +/- 2.03%); type: functional
NB-4 [8] = assay: Potentiation of ATRA-induced human NB4 cell differentiation at 5 uM after 96 hrs by nitroblue tetrazolium assay (reference value: 29.44 +/- 2.03%); type: functional
NB-4 [9] = assay: Induction of human NB4 cell differentiation at 0.5 to 10 uM after 96 hrs by nitroblue tetrazolium assay relative to control; type: functional
NB-4 [10] = assay: Potentiation of ATRA-induced human NB4 cell growth inhibition at 10 uM after 96 hrs by hemocytometry (reference value: 32.70 +/- 2.25%); type: functional; conditions: NB-4, 96 h, read-out: GI
NB-4 [11] = assay: Potentiation of ATRA-induced human NB4 cell growth inhibition at 5 uM after 96 hrs by hemocytometry (reference value: 32.70 +/- 2.25%); type: functional; conditions: NB-4, 96 h, read-out: GI
NB-4 [12] = assay: Cytotoxicity against human NB4 cells assessed as growth inhibition at 10 uM after 96 hrs by hemocytometry relative to control; type: functional; conditions: NB-4, 96 h, read-out: GI
NB-4 [13] = assay: Cytotoxicity against human NB4 cells assessed as growth inhibition at 5 uM after 96 hrs by hemocytometry relative to control; type: functional; conditions: NB-4, 96 h, read-out: GI

SMILES	Activity (NB-4 [1])	inhibition of growth at 1 µM (NB-4 [2])	Activity (Cytochrome P450 26A1)	Activity (NB-4 [3])	inhibition of growth at 1 µM (NB-4 [4])	inhibition of growth at 0.5 µM (NB-4 [5])	inhibition of growth at 0.5 µM (NB-4 [6])	Activity (NB-4 [7])	Activity (NB-4 [8])	Activity (NB-4 [9])	inhibition of growth at 10 µM (NB-4 [10])	inhibition of growth at 5 µM (NB-4 [11])	inhibition of growth at 10 µM (NB-4 [12])	inhibition of growth at 5 µM (NB-4 [13])
Cc1oc(C(C)(C)C)cc1C(=O)NC(Cc1ccccc1)C(=O)O (stereo not drawn)	38%	47.1%	33.9 ng/mL	39.58%	17.8%	50.6%	12.8%	42.64%	45.16%	0%	47.1%	40.2%	8.05%	7.7%
O=C(CCN1C(=O)c2ccccc2C1=O)NCc1ccncc1	37.16%	48.5%		35.05%	16.5%	50.8%	14.2%	41.21%	41.55%	0%	49.7%	50.9%	12.4%	14.6%
Cc1cc(O)nc(SCC(=O)c2ccc(O)c(O)c2)n1	32.57%	51.7%		33.19%	18.7%	50.3%	19.3%	39.43%	41.32%	0%	53.5%	53.4%	12.8%	12.2%
Cc1cccc(-c2nc3cc(/N=C/c4c(C)cc(O)cc4O)ccc3o2)c1	27.65%	48.5%		29.21%	22.6%	50.1%	25.8%	45.38%	36.43%	0%	79%	64.3%	48.5%	37.1%
COc1ccc(/C=C/C(=O)Nc2sc3c(c2C(=O)O)CCC3)cc1								31.42%	30.05%	0%	34.9%	31.5%	1.22%	0.49%
O=C(Nc1ccncc1)c1cc(-c2ccc(Br)cc2)nc2ccccc12	35.7%	48.7%		36.53%	24.7%	54.3%	20.2%	38.52%	33.68%	0%	59.4%	63.1%	52.9%	37.9%
CC1=CC(=O)OC2C=C(OCCOc3ccc(C(C)(C)C)cc3)C=CC12 (stereo not drawn)	38.42%	43%		35.72%	13.6%	46.1%	14.4%	42.39%	39.97%	0%	48.3%	43.5%	6.78%	7.78%
Cc1ccc(OCc2nc(-c3cccnc3)no2)c(Br)c1								28.85%	25.37%	0%	42.9%	39.8%	23.5%	18.2%
O=C(CCN1C(=O)c2ccccc2C1=O)Nc1cc(Cl)ccc1C(=O)O	36.18%	38.6%		35.1%	19.2%	47.9%	13.8%	36.7%	39.6%	0%	39.1%	41.3%	9.31%	3.68%
CCOc1ccc(NS(=O)(=O)c2ccc(Br)cc2)cc1								30.3%	26.83%	0%	48.4%	44.1%	20.8%	17.1%
O=C(O)c1ccc(COc2ccc(/C=C3\SC(=O)N(c4cccc(Cl)c4)C3=O)cc2)cc1	35.4%	53.7%		31.47%	18%	44.1%	18.6%	41.85%	38.42%	0%	41.1%	43.8%	9.07%	11%
CC(=O)Nc1ccc(C(=O)Nc2ccc(OCC(=O)O)cc2)cc1	34.74%	45.1%		37.62%	8.83%	45%	7.8%	38.97%	38.29%	0%	48.8%	45.8%	14.2%	17.9%
Clc1cccc(C(c2ccc3[nH]cnc3c2)n2ccnc2)c1 (stereo not drawn) [LIAROZOLE]	38.22%	46%	39.78 ng/mL	42.86%	23.1%	49.6%	14.5%	34.9%	33.53%	0%	56.3%	55.3%	40.9%	32.7%
